Measurements: patent US20230357189A1, “MODIFIED FLUOROQUINOLONES AND USES THEREOF” (Technion Research & Development Foundation Limited, priority 2021, published 2023)
Values after ≈ are worked out from the molar mass of the structure shown.

Assays:
[1] = test system: Staphylococcus Epidermidis; assay: Antibacterial activity, MIC by double-microdilution method; assay type: cell-based; conditions: for Gram-positive MIC c: Table 2; for MIC: Table 2, read-out: Gram-positive MIC c
[2] = test system: Escherichia coli R477-100; assay: as above; assay type: cell-based; conditions: for Gram-negative MIC a / MIC: Table 2, without DTT; for MIC: R477100, read-out: Gram-negative MIC a
E. coli DNA gyrase [3] = molecular target: T1, E. coli DNA gyrase (Escherichia coli, UniProt P0AES4+P0AES6); assay: E. coli Gyrase-DNA cleavage assay; assay type: biochemical; conditions: for linearization of supercoiled DNA with DNA gyrase, after Proteinase K / generation of linear DNA with DNA gyrase, without Proteinase K: absence of ATP; for linearization of supercoiled DNA with DNA gyrase, after Proteinase K: second incubation with SDS and Proteinase K; for generation of linear DNA with DNA gyrase, without Proteinase K / concentration of maximum linear DNA (bell-shaped profile): without Proteinase K treatment; for generation of linear DNA with DNA gyrase, without Proteinase K: buffer with DTT
T1 construct: purchased TopoGEN
Method: E. coli gyrase enzyme was purchased from TopoGEN and the DNA cleavage reactions were based on the protocol of Inspiralis. Assays (30 μL) contained supercoiled (+) pHOT1 plasmid (200 nanograms) and DNA gyrase (5 U as defined by manufacturer) in 35 mM Tris-HCl (pH 7.5), 24 mM KCl, 4 mM MgCl2, 2 mM DTT, 1.8 mM Spermidine, 6.5% (w/v) glycerol and 0.1 mg/mL bovine serum albumin. Reactions were incubated at 37° C. for 60 minutes. Enzyme-DNA cleavage complexes were trapped by adding 3 μL of 2% SDS. Following this, 1.5 μL of 10 mg/mL Proteinase K (Sigma-Aldrich) was added (where relevant) and the reaction mixtures were incubated at 37° C. for 30 minutes to digest the enzyme gyrase. Samples were mixed with 30 μL of loading buffer (40% sucrose, 100 mM Tris-HCl (pH 7.5), 1 mM EDTA, 0.5 mg-ml-1 bromophenol blue) and worked up using 30 μL of 24:1 chloroform/isoamyl alcohol mixture; the aqueous layer was then analyzed using electrophoresis. Electrophoresis, gel staining, DNA visualization and DNA quantification were performed as described for the DNA cleavage assays. DNA double stranded cleavage was monitored by the conversion of supercoiled plasmid to linear DNA and quantified in comparison to a control drug-free reaction.
To investigate the mechanism of inhibition, a DNA gyrase-induced DNA cleavage assay was performed in the absence of ATP. In this assay, the production of linear DNA from supercoiled DNA is measured as a function of compound concentration. […] Consequently, for the purposes of this assay, it is necessary to perform a second incubation of the reaction mixture with SDS and Proteinase K, which enables the digestion of the DNA gyrase enzyme and thereby ‘frees’ the linear DNA (Form III) so that it moves during electrophoresis.

Bacillus Subtilis = assay: Antibacterial activity, MIC by double-microdilution method; assay type: cell-based; conditions: for Gram-positive MIC d / MIC: Table 2, Bacillus Subtilis; for MIC: read-out: Gram-positive MIC d
E. coli DNA gyrase [4] = molecular target: T1, E. coli DNA gyrase; assay: E. coli Gyrase-DNA supercoiling assay; assay type: biochemical; conditions: supercoiling of relaxed pHOT-1 plasmid in presence of ATP; 37° C., 60 minutes
Method: The DNA supercoiling reactions were based on the manufacturer protocol (TopoGEN). The amount of DNA gyrase used in each assay was optimized by testing various dilutions of the stock. The amount sufficient to supercoil 250 nanograms (ng) of the substrate in 1 hour at 37° C. was then used for testing the compounds (1.1 U as defined by manufacturer). Assays (30 μL) contained 250 nanograms of relaxed pHOT1 plasmid DNA in Tris-HCl buffer (35 mM), pH 7.5, containing KCl (24 mM), MgCl2 (4 mM), DTT (2 mM), Spermidine (1.8 mM), ATP (1 mM), 6.5% (w/v) glycerol and bovine serum albumin (0.1 mg/ml). Reactions were incubated at 37° C. for 60 minutes. Reaction mixtures were stopped by the addition of 30 μL of loading buffer (40% sucrose, 100 mM Tris·HCl (pH 7.5), 1 mM EDTA, 0.5 mg×mL^−1 bromophenol blue) and worked up using 30 μL of 24:1 chloroform/isoamyl alcohol mixture; the aqueous layer was then analyzed using electrophoresis.
Electrophoresis, gel staining, DNA visualization and DNA quantification were performed as described for the DNA cleavage assays.

[5] = test system: supercoiled (+) pHOT-1 plasmid DNA; assay: DNA cleavage assay (gel electrophoresis); assay type: biochemical; conditions: for DNase activity (cleavage of supercoiled plasmid, form I to form II): absence of adjuvants, HEPES buffer (50 mM, pH 7.4), 5 hours; for concentration giving almost complete smearing of the DNA (multiply nicked DNA): ascorbic acid (0.32 mM), HEPES pH 7.4, 2 hours
Method: Removal of Ligands Prior to Electrophoresis was performed when more than 100 μM of Cu(II)-ligand or Co(III) ligand (at any concentration) complexes were employed that is, for DNA cleavage assays that were performed in the absence of any adjuvants. An Amberlyst® 15 (Sigma Aldrich) ion-exchange resin was prepared according to the reported literature [Hettich et al. J. Am. Chem. Soc. 1997, 119 (24), 5638-5647] and stored at −20° C. Before use, 0.5 gram of the exchanger was mixed with 250 μL of water. After stopping the DNA-cleavage reaction by addition of EDTA (54 mM, 15 minutes incubation at 37° C.), 10 μL of the exchanger suspension was added, vortexed, and incubated at 37° C. for 15 minutes before centrifugation and electrophoresis.
DNA cleavage activity of the tested Complexes towards supercoiled (+) pHOT-1 plasmid DNA (TopoGEN) was monitored by gel electrophoresis. In a typical experiment, plasmid DNA (200 ng, […]) in HEPES buffer (50 mM, pH 7.4) was mixed with different concentrations of a tested metal complex in the presence or absence of ascorbic acid (0.32 mM). All stock solutions of buffers and of the metal complexes were prepared using HPLC grade water (ChromAR®). Molecular biology reagent grade water (Sigma) was added up to a total reaction volume of 30 μL before incubation for a given time. For the ascorbic acid assays, the reaction was quenched immediately after incubation with EDTA (54 mM). For analysis, 10 μL of loading buffer (40% sucrose, 100 mM Tris-HCl (pH 7.5), 1 mM EDTA, 0.5 mg·mL^−1 bromophenol blue) was added to the incubated solution and loaded onto an agarose (SeaKem LE) gel [1% in TAE×1 buffer (40 mM Tris, 20 mM acetic acid, 1 mM EDTA)]. Electrophoresis was carried out at 60 V for 2 hours. Gels were stained with 1 μg·mL^−1 ethidium bromide for 30 minutes and de-stained in TAE×1 buffer. DNA bands were visualized with medium-range ultraviolet light using Bio-Rad Gel Doc XR+ imaging system. The quantity of different DNA forms (I or II) was estimated using ImageJ software.
Chem. 2015, 2015 (28), 4722-4730; Kashiba-Iwatsuki et al. FEBS Lett. 1996, 389 (2), 149-15].
The copper complex of compound 2 (2-Cu(II)) was used as the positive control in these assays.

Escherichia coli 25922 = assay: Antibacterial activity, MIC by double-microdilution method; assay type: cell-based; conditions: for Gram-negative MIC b / MIC: Table 2, Escherichia coli 25922; for MIC: read-out: Gram-negative MIC b
[6] = test system: Gram-negative and Gram-positive bacteria; assay: Comparative antibacterial activity, all tested bacteria; assay type: cell-based; conditions: MIC, Table 2 and 3
Method: Comparative antibacterial activities were determined by measuring the MIC values by using the double-microdilution method according to the National Committee for Clinical Laboratory Standards (NCCLS). The Luria-Bertani growth medium and polypropylene 96-well plates (Thermo) were used unless otherwise stated. All the experiments were performed in triplicate, and analogous results were obtained in three different experiments.
Compounds 1-6 and their Cu(II) and Co(III) complexes, as well as the pendant-bearing compounds 19-23 and 26 were tested for their comparative antibacterial activity by determining MIC values against two Gram-negative E. coli strains (AR477-100 and 25922) and two Gram-positive strains, Staphylococcus Epidermidis, and Bacillus Subtilis.

T1 sequence (P0AES4 whole entry, one chain of several): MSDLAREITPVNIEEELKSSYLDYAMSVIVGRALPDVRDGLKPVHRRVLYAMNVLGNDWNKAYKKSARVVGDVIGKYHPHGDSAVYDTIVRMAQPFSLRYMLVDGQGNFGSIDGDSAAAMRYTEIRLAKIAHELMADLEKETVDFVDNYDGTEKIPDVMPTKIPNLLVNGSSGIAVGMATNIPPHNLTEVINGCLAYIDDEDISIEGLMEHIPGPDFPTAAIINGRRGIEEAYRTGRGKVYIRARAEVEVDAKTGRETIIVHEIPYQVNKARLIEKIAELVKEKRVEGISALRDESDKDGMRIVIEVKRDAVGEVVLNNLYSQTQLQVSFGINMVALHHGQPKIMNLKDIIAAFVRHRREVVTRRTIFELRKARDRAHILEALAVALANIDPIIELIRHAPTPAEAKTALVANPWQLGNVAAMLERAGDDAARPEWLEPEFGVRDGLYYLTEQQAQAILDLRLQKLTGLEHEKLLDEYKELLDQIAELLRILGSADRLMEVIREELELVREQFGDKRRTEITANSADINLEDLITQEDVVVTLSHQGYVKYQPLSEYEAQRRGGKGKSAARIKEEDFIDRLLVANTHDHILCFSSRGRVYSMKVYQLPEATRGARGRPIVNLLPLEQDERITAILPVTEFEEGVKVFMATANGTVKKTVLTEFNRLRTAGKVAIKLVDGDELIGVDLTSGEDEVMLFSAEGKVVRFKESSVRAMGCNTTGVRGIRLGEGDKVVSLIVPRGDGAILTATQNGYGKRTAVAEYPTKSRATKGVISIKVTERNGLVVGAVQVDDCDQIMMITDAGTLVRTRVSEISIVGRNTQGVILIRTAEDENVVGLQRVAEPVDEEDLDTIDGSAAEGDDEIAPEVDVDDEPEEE

Compound: O.O=C(O)c1cn(C2CC2)c2cc(N3CCN(CCCCCCN4CCNCCNCCNCC4)CC3)c(F)cc2c1=O.[Cu+2] [1-Cu(II)]
- Gram-positive MIC c [1]: 24 µg/mL
- improvement of MIC in the presence of DTT ([2]; 10 mM DTT vs without DTT, Gram-negative E. coli R477-100): no change whatsoever
- Gram-negative MIC a ([2]; Escherichia coli R477-100): 24 µg/mL
- linearization of supercoiled DNA with DNA gyrase, after Proteinase K (E. coli DNA gyrase [3]): linearized the DNA in a similar manner to the metal-free ligands
- generation of linear DNA with DNA gyrase, without Proteinase K (E. coli DNA gyrase [3]): not able to generate linear DNA at any concentration
- Gram-positive MIC d (Bacillus Subtilis): 48 µg/mL
- IC50 (E. coli DNA gyrase [4]): 100 ± 10 nM
- DNase activity (cleavage of supercoiled plasmid, form I to form II) [5]: very significant enhancement in the rates of DNA cleavage
- concentration giving almost complete smearing of the DNA (multiply nicked DNA) [5]: > 40 µM
- Gram-negative MIC b (Escherichia coli 25922): 48 µg/mL

Compound: O.O=C(O)c1cn(C2CC2)c2cc(N3CCN(CCCCCCCN4CCNCCNCCNCC4)CC3)c(F)cc2c1=O.[Cu+2] [2-Cu(II)]
- Gram-positive MIC c [1]: 12 µg/mL
- Gram-negative MIC a ([2]; Escherichia coli R477-100): 12 µg/mL
- linearization of supercoiled DNA with DNA gyrase, after Proteinase K (E. coli DNA gyrase [3]): linearized the DNA in a similar manner to the metal-free ligands
- generation of linear DNA with DNA gyrase, without Proteinase K (E. coli DNA gyrase [3]): able to generate a significant quantity of linear DNA
- concentration of maximum linear DNA (bell-shaped profile) (E. coli DNA gyrase [3]): 25 µM
- Gram-positive MIC d (Bacillus Subtilis): 12 µg/mL
- IC50 (E. coli DNA gyrase [4]): 240 ± 30 nM
- DNase activity (cleavage of supercoiled plasmid, form I to form II) [5]: significant cleavage enhancement even in relation to the activity of 1-Cu(II) and 4-Cu(II)
- concentration giving almost complete smearing of the DNA (multiply nicked DNA) [5]: 20 µM
- Gram-negative MIC b (Escherichia coli 25922): 6 µg/mL

Compound: O.O=C(O)c1cn(C2CC2)c2cc(N3CCN(Cc4ccc(CN5CCNCCNCCNCC5)cc4)CC3)c(F)cc2c1=O.[Cu+2] [4-Cu(II)]
- Gram-positive MIC c [1]: 3 µg/mL
- Gram-negative MIC, DTT 10 mM ([2]; Escherichia coli R477-100, DTT 10 mM): 3.0 µg/mL
- Gram-negative MIC a ([2]; Escherichia coli R477-100): 24 µg/mL
- linearization of supercoiled DNA with DNA gyrase, after Proteinase K (E. coli DNA gyrase [3]): linearized the DNA in a similar manner to the metal-free ligands
- generation of linear DNA with DNA gyrase, without Proteinase K (E. coli DNA gyrase [3]): able to generate a significant quantity of linear DNA
- concentration of maximum linear DNA (bell-shaped profile) (E. coli DNA gyrase [3]): 25 µM
- improvement of MIC in the presence of DTT (Bacillus Subtilis; 10 mM DTT vs without DTT, Gram-positive B. Subtilis): 4 fold
- Gram-positive MIC d (Bacillus Subtilis): 6 µg/mL
- IC50 (E. coli DNA gyrase [4]): 140 ± 20 nM
- DNase activity (cleavage of supercoiled plasmid, form I to form II) [5]: very significant enhancement in the rates of DNA cleavage
- improvement of MIC in the presence of DTT (Escherichia coli 25922; 10 mM DTT vs without DTT, E. coli 25922): 4 fold
- Gram-negative MIC b (Escherichia coli 25922): 12 µg/mL

Compound: O.O=C(O)c1cn(C2CC2)c2cc(N3CCN(Cc4ccc(CCN5CCNCCNCCNCC5)cc4)CC3)c(F)cc2c1=O.[Co+3].[OH-] [5-Co(III)]
- Gram-positive MIC c [1]: 3 µg/mL
- Gram-negative MIC a ([2]; Escherichia coli R477-100): 3 µg/mL
- Gram-positive MIC d (Bacillus Subtilis): 3 µg/mL
- antibacterial activity (in words) [6]: slightly higher activity
- Gram-negative MIC b (Escherichia coli 25922): 1.5 µg/mL

Compound: O.O=C(O)c1cn(C2CC2)c2cc(N3CCN(Cc4ccc(CCCN5CCNCCNCCNCC5)cc4)CC3)c(F)cc2c1=O.[Cu+2] [6-Cu(II)]
- Gram-positive MIC c [1]: 3 µg/mL
- Gram-negative MIC a ([2]; Escherichia coli R477-100): 6 µg/mL
- Gram-positive MIC d (Bacillus Subtilis): 6 µg/mL
- IC50 (E. coli DNA gyrase [4]): 90 ± 10 nM
- DNase activity (cleavage of supercoiled plasmid, form I to form II) [5]: only very limited activity
- Gram-negative MIC b (Escherichia coli 25922): 3 µg/mL

Compound: O=C(O)c1cn(C2CC2)c2cc(N3CCN(CCCCCCN4CCNCCNCCNCC4)CC3)c(F)cc2c1=O [Compound 1]
- MIC [1]: 12 µg/mL (≈ 20.5 µM)
- MIC ([2]; Escherichia coli R477-100): 12 µg/mL (≈ 20.5 µM)
- linearization of supercoiled DNA with DNA gyrase, after Proteinase K (E. coli DNA gyrase [3]): significant linearization of DNA
- MIC (Bacillus Subtilis): 12 µg/mL (≈ 20.5 µM)
- IC50 (E. coli DNA gyrase [4]): 130 ± 30 nM
- MIC (Escherichia coli 25922): 24 µg/mL (≈ 41 µM)

Compound: O=C(O)c1cn(C2CC2)c2cc(N3CCN(CCCCCCCN4CCNCCNCCNCC4)CC3)c(F)cc2c1=O [Compound 2]
- MIC [1]: 12 µg/mL (≈ 20 µM)
- MIC ([2]; Escherichia coli R477-100): 12 µg/mL (≈ 20 µM)
- linearization of supercoiled DNA with DNA gyrase, after Proteinase K (E. coli DNA gyrase [3]): significant linearization of DNA
- MIC (Bacillus Subtilis): 12 µg/mL (≈ 20 µM)
- IC50 (E. coli DNA gyrase [4]): 240 ± 30 nM
- MIC (Escherichia coli 25922): 6 µg/mL (≈ 10 µM)

Compound: O=C(O)c1cn(C2CC2)c2cc(N3CCN(Cc4ccc(CN5CCNCCNCCNCC5)cc4)CC3)c(F)cc2c1=O [Compound 4]
- MIC [1]: 6 to 12 µg/mL (≈ 9.9 to 19.8 µM)
- MIC ([2]; Escherichia coli R477-100): 12 to 24 µg/mL (≈ 19.8 to 39.6 µM)
- linearization of supercoiled DNA with DNA gyrase, after Proteinase K (E. coli DNA gyrase [3]): significant linearization of DNA
- MIC (Bacillus Subtilis): 6 to 12 µg/mL (≈ 9.9 to 19.8 µM)
- IC50 (E. coli DNA gyrase [4]): 150 ± 10 nM
- MIC (Escherichia coli 25922): 12 to 24 µg/mL (≈ 19.8 to 39.6 µM)
